The values that follow come from ChEMBL document CHEMBL3991601, “The target landscape of clinical kinase drugs” (Science, 2017).

The target of assay [1] is Mitogen-activated protein kinase 14 (Homo sapiens, UniProt Q16539).
Assay [2] deals with T1, Glycogen phosphorylase, liver form (Homo sapiens, UniProt P06737).
T1 sequence (P06737 whole entry): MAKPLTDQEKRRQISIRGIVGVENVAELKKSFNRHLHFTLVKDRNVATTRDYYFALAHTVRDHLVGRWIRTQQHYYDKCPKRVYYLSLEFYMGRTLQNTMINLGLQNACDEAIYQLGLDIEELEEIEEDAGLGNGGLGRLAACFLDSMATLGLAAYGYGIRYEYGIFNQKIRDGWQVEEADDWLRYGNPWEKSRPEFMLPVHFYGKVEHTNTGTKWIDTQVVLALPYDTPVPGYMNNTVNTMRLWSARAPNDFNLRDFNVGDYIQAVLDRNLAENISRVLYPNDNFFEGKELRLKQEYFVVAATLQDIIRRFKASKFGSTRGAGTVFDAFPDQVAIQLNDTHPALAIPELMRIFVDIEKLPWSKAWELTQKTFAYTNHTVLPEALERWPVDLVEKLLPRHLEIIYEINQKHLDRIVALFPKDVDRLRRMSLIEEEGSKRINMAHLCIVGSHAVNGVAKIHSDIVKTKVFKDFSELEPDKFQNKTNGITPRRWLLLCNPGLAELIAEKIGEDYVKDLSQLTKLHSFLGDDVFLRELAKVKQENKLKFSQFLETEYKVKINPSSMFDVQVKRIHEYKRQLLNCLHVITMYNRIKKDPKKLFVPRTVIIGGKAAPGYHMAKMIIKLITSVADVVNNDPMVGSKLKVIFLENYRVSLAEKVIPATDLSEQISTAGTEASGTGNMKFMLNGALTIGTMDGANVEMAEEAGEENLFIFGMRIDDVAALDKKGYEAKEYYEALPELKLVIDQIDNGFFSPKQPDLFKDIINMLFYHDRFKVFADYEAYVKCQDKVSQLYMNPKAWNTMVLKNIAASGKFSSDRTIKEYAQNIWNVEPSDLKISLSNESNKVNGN
The assay is classed as subcellular, K-562, COLO 205, SK-N-BE(2) and MV-4-11, Cell lysate. The following applies: read-out: Kd apparent.

The target in assay [3] is Platelet-derived growth factor receptor beta (Homo sapiens, UniProt P09619).
Assay [4] has as its target DnaJ homolog subfamily A member 1 (Homo sapiens, UniProt P31689).
Assay [5] concerns the target Mitogen-activated protein kinase kinase kinase kinase 5 (Homo sapiens, UniProt Q9Y4K4).
For assay [6], the target named is Non-receptor tyrosine-protein kinase TYK2 (Homo sapiens, UniProt P29597).
A further assay deals with Ephrin type-A receptor 5 (Homo sapiens, UniProt P54756).
In assay [7] the target is T2, Dual specificity mitogen-activated protein kinase kinase 5 (Homo sapiens, UniProt Q13163).
T2 sequence (Q13163 whole entry): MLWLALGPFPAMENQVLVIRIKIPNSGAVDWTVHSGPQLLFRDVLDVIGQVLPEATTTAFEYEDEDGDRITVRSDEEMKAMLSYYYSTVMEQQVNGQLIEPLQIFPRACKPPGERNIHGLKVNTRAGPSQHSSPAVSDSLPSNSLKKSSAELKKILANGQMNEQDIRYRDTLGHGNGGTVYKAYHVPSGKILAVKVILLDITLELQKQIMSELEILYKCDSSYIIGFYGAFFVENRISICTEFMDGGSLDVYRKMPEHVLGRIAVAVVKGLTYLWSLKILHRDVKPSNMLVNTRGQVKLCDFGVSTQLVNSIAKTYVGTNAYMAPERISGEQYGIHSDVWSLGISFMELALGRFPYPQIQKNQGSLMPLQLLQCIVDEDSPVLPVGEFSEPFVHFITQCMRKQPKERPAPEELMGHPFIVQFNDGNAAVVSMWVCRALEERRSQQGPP

The target of assay [8] is Bone morphogenetic protein receptor type-1B (Homo sapiens, UniProt O00238).
Another assay deals with Deoxycytidine kinase (Homo sapiens, UniProt P27707).
Assay [9] deals with cAMP-dependent protein kinase catalytic subunit gamma (Homo sapiens, UniProt P22612).
In assay [10] the target is Cyclin-dependent kinase 2 (Homo sapiens, UniProt P24941).
Assay [11] has as its target T3, Ras-related protein Rab-10 (Homo sapiens, UniProt P61026).
T3 sequence (P61026 whole entry): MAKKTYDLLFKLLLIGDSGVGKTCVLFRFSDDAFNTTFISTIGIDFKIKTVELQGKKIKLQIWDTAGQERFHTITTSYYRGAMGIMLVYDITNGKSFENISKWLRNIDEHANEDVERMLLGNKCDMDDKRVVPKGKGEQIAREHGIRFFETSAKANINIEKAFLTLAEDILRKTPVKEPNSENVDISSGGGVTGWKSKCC

For assay [12], the target named is Receptor-interacting serine/threonine-protein kinase 2 (Homo sapiens, UniProt O43353).
The target in assay [13] is Serine/threonine-protein kinase SIK2 (Homo sapiens, UniProt Q9H0K1).
The target in assay [14] is Tyrosine-protein kinase Lyn (Homo sapiens, UniProt P07948).
The target of assay [15] is Dual specificity testis-specific protein kinase 1 (Homo sapiens, UniProt Q15569).

Activity calls are given as the source filed them. For most assays here, no stated cut-off is given here; in the data, actives have a measured Kd and inactives only a lower limit.

Sequence of DnaJ homolog subfamily A member 1 (P31689 whole entry): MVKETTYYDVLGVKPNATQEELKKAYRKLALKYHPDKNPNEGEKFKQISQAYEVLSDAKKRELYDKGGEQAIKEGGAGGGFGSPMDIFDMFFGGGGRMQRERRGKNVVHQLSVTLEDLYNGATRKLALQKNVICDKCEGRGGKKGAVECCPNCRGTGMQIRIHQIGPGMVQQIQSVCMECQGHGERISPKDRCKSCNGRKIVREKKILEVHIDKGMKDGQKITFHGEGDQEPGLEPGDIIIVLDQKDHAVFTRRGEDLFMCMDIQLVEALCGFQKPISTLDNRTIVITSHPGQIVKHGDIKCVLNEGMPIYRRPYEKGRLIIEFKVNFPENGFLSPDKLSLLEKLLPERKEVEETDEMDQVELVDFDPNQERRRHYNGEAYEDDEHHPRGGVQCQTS
Sequence of Receptor-interacting serine/threonine-protein kinase 2 (O43353 whole entry): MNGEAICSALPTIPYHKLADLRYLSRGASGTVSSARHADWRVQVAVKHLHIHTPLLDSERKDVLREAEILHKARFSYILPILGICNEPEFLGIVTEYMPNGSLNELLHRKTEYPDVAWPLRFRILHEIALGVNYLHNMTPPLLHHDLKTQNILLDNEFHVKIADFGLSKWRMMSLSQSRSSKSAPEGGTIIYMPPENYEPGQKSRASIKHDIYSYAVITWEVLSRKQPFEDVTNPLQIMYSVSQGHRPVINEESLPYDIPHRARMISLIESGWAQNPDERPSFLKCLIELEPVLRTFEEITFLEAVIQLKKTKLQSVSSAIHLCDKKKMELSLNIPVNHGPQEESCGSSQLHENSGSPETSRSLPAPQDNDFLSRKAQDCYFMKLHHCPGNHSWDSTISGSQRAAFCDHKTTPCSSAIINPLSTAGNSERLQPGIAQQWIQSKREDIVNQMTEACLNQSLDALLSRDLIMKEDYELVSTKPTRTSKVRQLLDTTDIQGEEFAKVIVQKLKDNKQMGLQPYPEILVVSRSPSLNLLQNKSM
Sequence of Non-receptor tyrosine-protein kinase TYK2 (P29597 whole entry): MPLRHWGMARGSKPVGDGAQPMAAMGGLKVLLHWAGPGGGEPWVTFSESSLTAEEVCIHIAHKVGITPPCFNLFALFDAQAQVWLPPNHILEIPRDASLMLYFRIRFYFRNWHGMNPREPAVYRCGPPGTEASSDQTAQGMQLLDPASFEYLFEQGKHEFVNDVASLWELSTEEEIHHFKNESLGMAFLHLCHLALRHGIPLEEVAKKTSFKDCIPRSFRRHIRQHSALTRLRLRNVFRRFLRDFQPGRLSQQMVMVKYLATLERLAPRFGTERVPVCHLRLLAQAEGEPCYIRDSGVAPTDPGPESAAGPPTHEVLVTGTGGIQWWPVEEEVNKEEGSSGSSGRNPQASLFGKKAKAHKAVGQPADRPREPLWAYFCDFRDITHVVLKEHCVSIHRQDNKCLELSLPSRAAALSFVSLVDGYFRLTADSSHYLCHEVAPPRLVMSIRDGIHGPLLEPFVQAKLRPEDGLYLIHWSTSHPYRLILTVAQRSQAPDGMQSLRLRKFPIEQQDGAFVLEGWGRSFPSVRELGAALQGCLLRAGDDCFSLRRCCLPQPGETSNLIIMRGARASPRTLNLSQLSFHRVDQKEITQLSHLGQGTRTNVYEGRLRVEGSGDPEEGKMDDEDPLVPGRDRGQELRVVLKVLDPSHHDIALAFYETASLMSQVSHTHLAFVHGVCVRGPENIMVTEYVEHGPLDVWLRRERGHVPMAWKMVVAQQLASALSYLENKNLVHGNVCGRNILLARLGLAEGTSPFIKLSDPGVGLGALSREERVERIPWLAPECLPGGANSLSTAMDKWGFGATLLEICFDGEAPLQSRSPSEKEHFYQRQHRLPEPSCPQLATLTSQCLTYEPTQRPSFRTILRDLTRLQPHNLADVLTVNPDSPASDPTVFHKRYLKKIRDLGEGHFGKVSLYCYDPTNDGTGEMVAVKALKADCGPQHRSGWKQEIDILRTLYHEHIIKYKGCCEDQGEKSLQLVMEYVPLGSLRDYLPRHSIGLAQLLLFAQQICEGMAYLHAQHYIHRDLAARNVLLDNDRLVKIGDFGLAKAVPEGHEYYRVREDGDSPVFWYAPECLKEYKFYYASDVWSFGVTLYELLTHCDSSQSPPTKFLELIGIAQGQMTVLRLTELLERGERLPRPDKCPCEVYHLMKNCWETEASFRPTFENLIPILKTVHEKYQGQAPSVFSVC
Sequence of Dual specificity testis-specific protein kinase 1 (Q15569 whole entry): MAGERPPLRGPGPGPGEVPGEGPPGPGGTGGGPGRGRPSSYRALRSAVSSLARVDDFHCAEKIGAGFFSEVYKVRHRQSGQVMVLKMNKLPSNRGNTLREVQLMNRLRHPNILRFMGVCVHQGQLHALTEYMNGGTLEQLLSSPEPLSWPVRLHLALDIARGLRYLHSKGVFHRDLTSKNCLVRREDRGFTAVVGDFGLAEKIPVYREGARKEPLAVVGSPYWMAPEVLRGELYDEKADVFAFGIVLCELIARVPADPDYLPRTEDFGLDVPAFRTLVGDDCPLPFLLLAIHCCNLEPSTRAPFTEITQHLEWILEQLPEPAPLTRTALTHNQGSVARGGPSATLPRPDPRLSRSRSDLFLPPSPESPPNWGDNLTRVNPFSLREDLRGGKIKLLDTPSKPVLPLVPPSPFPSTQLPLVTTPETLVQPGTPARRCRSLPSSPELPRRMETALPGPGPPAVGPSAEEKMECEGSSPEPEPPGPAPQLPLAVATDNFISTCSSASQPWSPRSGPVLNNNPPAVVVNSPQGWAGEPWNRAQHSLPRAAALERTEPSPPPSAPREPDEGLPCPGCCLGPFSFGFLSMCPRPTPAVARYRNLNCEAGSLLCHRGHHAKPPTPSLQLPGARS
Sequence of Tyrosine-protein kinase Lyn (P07948 whole entry): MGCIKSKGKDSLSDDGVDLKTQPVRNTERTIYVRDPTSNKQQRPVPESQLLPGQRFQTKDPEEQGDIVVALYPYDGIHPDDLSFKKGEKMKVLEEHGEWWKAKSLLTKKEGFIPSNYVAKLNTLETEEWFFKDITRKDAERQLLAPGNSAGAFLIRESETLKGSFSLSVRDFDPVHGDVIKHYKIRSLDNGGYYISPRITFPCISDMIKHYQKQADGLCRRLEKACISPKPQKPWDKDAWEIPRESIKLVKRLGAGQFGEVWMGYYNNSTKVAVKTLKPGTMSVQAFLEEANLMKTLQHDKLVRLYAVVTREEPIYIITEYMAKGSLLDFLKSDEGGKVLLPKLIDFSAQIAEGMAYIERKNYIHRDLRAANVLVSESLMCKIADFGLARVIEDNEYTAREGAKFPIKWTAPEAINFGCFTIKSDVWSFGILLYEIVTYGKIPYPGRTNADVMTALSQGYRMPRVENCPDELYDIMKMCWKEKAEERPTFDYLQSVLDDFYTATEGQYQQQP
Sequence of Deoxycytidine kinase (P27707 whole entry): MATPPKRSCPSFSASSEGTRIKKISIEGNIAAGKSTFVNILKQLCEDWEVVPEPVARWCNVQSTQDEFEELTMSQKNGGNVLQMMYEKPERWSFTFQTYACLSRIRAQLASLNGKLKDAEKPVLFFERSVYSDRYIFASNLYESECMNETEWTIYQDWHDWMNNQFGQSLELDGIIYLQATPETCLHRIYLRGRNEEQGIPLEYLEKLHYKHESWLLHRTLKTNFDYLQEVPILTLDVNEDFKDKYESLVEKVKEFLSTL
Sequence of cAMP-dependent protein kinase catalytic subunit gamma (P22612 whole entry): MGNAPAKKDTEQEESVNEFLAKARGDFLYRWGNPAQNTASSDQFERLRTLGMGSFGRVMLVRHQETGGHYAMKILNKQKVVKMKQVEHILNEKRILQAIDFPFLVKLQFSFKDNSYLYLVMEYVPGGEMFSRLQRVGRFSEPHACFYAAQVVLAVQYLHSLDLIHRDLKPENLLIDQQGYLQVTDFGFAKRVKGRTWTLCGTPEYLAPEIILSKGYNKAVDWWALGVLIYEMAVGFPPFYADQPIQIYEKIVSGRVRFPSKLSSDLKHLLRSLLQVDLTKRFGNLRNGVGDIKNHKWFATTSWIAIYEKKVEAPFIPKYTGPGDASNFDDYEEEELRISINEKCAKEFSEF
Sequence of Bone morphogenetic protein receptor type-1B (O00238 whole entry): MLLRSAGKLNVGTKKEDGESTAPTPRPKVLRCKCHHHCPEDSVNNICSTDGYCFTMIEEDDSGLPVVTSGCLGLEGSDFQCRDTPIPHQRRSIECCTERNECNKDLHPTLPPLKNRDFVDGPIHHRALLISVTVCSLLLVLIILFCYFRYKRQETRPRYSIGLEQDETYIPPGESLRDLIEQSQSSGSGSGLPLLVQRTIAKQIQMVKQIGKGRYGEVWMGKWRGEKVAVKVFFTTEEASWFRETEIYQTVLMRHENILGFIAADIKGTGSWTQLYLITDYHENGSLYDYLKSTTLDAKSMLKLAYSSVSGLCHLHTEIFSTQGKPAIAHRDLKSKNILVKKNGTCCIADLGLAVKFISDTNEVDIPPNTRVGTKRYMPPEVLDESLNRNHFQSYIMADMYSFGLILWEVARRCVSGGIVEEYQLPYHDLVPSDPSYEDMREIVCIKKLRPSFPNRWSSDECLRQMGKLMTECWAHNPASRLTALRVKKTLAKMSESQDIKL
Sequence of Mitogen-activated protein kinase 14 (Q16539 whole entry): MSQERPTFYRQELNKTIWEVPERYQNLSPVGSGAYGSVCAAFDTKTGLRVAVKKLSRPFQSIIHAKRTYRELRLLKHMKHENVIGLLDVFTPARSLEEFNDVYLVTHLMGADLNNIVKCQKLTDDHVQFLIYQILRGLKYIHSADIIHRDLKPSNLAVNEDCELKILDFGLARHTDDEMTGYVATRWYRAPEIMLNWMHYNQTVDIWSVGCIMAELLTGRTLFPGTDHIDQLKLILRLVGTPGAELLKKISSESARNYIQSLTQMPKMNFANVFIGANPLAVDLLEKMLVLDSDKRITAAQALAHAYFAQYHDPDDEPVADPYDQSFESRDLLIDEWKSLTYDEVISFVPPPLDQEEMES

On to `Cc1cc(C(=O)NOCCO)c(Nc2ccc(I)cc2F)n(C)c1=O` [AZD-8330], for which the Kd in assay [1], in assay [2], in assay [3], in assay [4], in assay [5] and in [6] was > 30 µM (inactive) throughout. Further, the Kd was > 30 µM (inactive) at Ephrin type-A receptor 5; 2.66 µM (active) in assay [7]; > 30 µM (inactive) in assay [8]; > 30 µM (inactive) on Deoxycytidine kinase; > 30 µM (inactive) in assay [9]; > 30 µM (inactive) in assay [10]. Also, the Kd in assay [11], in assay [12], in assay [13] and in assay [14] was > 30 µM (inactive) throughout.
For the compound `CCOc1cc2ncc(C#N)c(Nc3ccc(F)c(Cl)c3)c2cc1NC(=O)/C=C/CN(C)C` [PELITINIB], the Kd in assay [15] is > 30 µM (inactive); in assay [1] it was > 30 µM (inactive); in [2] it was > 30 µM (inactive); in assay [3] it was > 30 µM (inactive); in assay [4], > 30 µM (inactive); in assay [5], 0.042 µM (active). Moreover, the Kd (in assay [6]; on Ephrin type-A receptor 5; in assay [7]; in assay [8]; at Deoxycytidine kinase; in assay [10]) was > 30 µM (inactive) in each case. Besides, the Kd in [11], in assay [12] and in assay [14] was > 30 µM (inactive) throughout.
As to `CCCCCCCCCCCCCCCCCCOP(=O)([O-])OC1CC[N+](C)(C)CC1` [PERIFOSINE], the Kd in assay [15], in [2], in [3], in assay [4], in [5] and in assay [6] was > 30 µM (inactive) each time. The Kd (at Ephrin type-A receptor 5; in assay [7]; in [8]; at Deoxycytidine kinase; in assay [9]; in [10]) was > 30 µM (inactive) in each case. Besides, the Kd in [11], in [12], in assay [13] and in assay [14] was > 30 µM (inactive) throughout.
Turning to `CNC(=O)c1cc(Oc2ccc(NC(=O)Nc3cc(C(C)(C)C)nn3-c3ccc4ncccc4c3)c(F)c2)ccn1` [REBASTINIB], the Kd was > 30 µM (inactive) in [15]; 2.76 µM (active) in assay [1]; > 30 µM (inactive) in assay [2]; > 30 µM (inactive) in assay [3]; > 30 µM (inactive) in assay [4]; > 30 µM (inactive) in assay [6]. Further, the Kd on Ephrin type-A receptor 5 was > 30 µM (inactive); in assay [7] it was > 30 µM (inactive); in assay [8] it was > 30 µM (inactive); on Deoxycytidine kinase, > 30 µM (inactive); in assay [9], > 30 µM (inactive); in [10] it was 0.199 µM (active). Moreover, the Kd in [11], in [12] and in assay [13] was > 30 µM (inactive) throughout.
In the case of `CO[C@H]1C[C@@H]2CC[C@@H](C)[C@@](O)(O2)C(=O)C(=O)N2CCCC[C@H]2C(=O)O[C@H]([C@H](C)C[C@@H]2CC[C@@H](O)[C@H](OC)C2)CC(=O)[C@H](C)/C=C(\C)[C@@H](O)[C@@H](OC)C(=O)[C@H](C)C[C@H](C)/C=C/C=C/C=C/1C` [SIROLIMUS], the Kd in [15], in assay [1], in assay [2], in [3], in [4] and in assay [5] was > 30 µM (inactive) in each case. Moreover, the Kd (in assay [6]; on Ephrin type-A receptor 5; in assay [7]; in assay [8]; on Deoxycytidine kinase; in [10]) was > 30 µM (inactive) each time. Further, the Kd in [11], in assay [12], in assay [13] and in assay [14] was > 30 µM (inactive) in each case.
As for `O=C(Cc1ccc(-c2ccc(OCCN3CCOCC3)cc2)cn1)NCc1ccccc1` [TIRBANIBULIN], the Kd in assay [15], in assay [1], in [2], in [3], in assay [4] and in [5] was > 30 µM (inactive) in each case. Also, the Kd (in assay [6]; at Ephrin type-A receptor 5; in [7]; in assay [8]; at Deoxycytidine kinase; in assay [10]) was > 30 µM (inactive) each time. In addition, the Kd in assay [11], in assay [12], in assay [13] and in assay [14] was > 30 µM (inactive) in each case.
As for `O=C1NC(=O)[C@@H](c2cn3c4c(cccc24)CCC3)[C@@H]1c1c[nH]c2ccccc12` [TIVANTINIB], the Kd in [15], in assay [1], in assay [2], in [3], in assay [4] and in [5] was > 30 µM (inactive) throughout. For the same compound, the Kd (in assay [6]; at Ephrin type-A receptor 5; in assay [7]; in [8]; at Deoxycytidine kinase; in assay [10]) was > 30 µM (inactive) throughout. Moreover, the Kd in assay [11], in [12], in assay [13] and in [14] was > 30 µM (inactive) throughout.
For the compound `Cn1ncc(Cl)c1-c1cc(C(=O)N[C@H](CN)Cc2ccc(F)c(F)c2)oc1Cl` [UPROSERTIB], the Kd in assay [1], in assay [2], in assay [3], in assay [4], in assay [5] and in assay [6] was > 30 µM (inactive) each time. Further, the Kd (on Ephrin type-A receptor 5; in assay [7]; in assay [8]; at Deoxycytidine kinase; in assay [9]; in assay [10]) was > 30 µM (inactive) throughout. Also, the Kd in [11], in assay [12], in assay [13] and in [14] was > 30 µM (inactive) in each case.
